Source: patent US20230159469A1, “NOVEL PHTHALAZINE DERIVATIVE HAVING ECTONUCLOEOTIDE PYROPHOSPHATASE/PHOSPHODIESTE RASE INHIBITORY ACTIVITY, AND USE THEREOF” (TXINNO BIOSCIENCE INC., priority 2020, published 2023)
Counter-ions that a name gives are not always drawn.

Target: T1, human recombinant ENPP1 (Homo sapiens, UniProt P22413)
T1 construct: purchased R & D systems
T1 sequence (P22413 1-925): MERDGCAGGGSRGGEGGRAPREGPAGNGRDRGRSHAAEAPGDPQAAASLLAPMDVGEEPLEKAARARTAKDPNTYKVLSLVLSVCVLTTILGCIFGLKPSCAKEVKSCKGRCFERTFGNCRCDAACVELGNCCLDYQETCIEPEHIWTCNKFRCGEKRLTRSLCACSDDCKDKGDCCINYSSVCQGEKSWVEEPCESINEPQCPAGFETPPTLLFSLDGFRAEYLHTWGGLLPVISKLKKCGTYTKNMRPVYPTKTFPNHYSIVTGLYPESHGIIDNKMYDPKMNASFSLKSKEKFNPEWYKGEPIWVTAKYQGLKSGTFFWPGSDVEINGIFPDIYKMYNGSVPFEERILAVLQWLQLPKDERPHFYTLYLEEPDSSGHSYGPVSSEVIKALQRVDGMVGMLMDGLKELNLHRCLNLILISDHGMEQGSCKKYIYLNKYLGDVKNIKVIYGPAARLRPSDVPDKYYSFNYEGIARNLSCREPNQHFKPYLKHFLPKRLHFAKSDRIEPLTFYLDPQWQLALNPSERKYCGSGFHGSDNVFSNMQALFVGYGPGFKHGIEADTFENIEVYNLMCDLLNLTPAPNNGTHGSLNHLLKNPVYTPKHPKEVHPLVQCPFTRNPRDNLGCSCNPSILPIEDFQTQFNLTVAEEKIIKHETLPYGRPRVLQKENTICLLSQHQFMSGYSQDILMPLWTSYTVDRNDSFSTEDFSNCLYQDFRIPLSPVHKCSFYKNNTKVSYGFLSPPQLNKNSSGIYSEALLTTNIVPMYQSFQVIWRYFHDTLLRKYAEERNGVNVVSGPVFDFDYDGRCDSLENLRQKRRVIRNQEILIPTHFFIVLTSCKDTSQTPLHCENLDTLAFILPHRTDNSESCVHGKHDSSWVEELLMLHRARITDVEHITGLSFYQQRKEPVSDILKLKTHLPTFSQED
Assay: ENPP1 enzyme assay with cGAMP substrate (AMP-Glo luminescence)
Assay type: biochemical
Settings: human recombinant ENPP1 3 ng/reaction, cGAMP 5 μM, 37° C. 90 minutes, read-out: Enzymatic activity (ENPP1 IC50)
Procedure: ENPP1 hydrolyzes nucleotides or nucleotide derivatives to produce nucleoside -5′-monophosphate and pyrophosphate. in addition, ENPP1 hydrolyzes 2′,3′-cGAMP to produce 5′-adenosine monophosphate (AMP) and 5′-guanosine monophosphate (GMP). AMP produced from the reaction is measured using the AMP-Glo® kit (Promega). The AMP-Glo® kit contains two reagents. The first reagent terminates the AMP-producing enzymatic reaction, removes ATP and converts the produced AMP into ADP. The second reagent converts ADP to ATP which is used to generate luminescence in the luciferase reaction. The amount of luminescence measured is proportional to the amount of AMP produced by ENPP1.
The final reaction mixture contains 50 mM Tris (pH 8.5) buffer, 250 mM NaCl, 0.5 mM. CaCl2, 1 μM ZnCl2, 5% glycerol and 1% DMSO. […] The reaction was initiated by addition of cGAMP (at a final concentration of 5 μM) and reacted at 37° C. for 90 minutes. At the end of the reaction, 10 μl of the AMP-Glo first reagent was added to stop the reaction and the result was stored at room temperature for […]. After storage, 20 μl of an AMP detection solution (a mixture of AMP-Glo II reagent and Kinase-Gio at a ratio of 1:100) was added and stored at room. temperature for 1 hour. Luminescence signals were measured using a Victor® plate reader (Perkin Elmer). The maximal activity control (containing enzymes and substrates only in the presence of 1% DMSO; MAX) and the minimal activity control (containing substrates and 1% DMSO; MIN) were evaluated simultaneously. In each experiment, serially diluted reference ENPP1 inhibitors were tested together. IC50, indicating % residual activity versus compound concentration was determined by fitting inhibition curves using the 3-parameter analysis of GraphPad Prism® software. Serially diluted samples of one compound were tested two or more times and an average IC50 of each compound was calculated.

SMILES | IC50
COc1ccc2c(-c3ccc(CN)cc3)n[nH]c(=O)c2c1 [Compound No. 47, 4-(4-(aminomethyl)-phenyl)-7-methoxyphthalazin-1(2H)-one hydrochloride] | < 1 µM
COc1cc2c(-c3ccc(CN)cc3)n[nH]c(=O)c2cc1OC [Compound No. 48, 4-(4-(aminomethyl)phenyl)-6,7-dimethoxyphthalazin-1(2H)-one hydrochloride] | < 1 µM
COc1cc2c(-c3ccc(CN)cc3)nn(C)c(=O)c2cc1OC [Compound No. 49, 4-(4-(aminomethyl)phenyl)-6,7-dimethoxy-2-methylphthalazin-1(2H)-one hydrochloride] | < 1 µM
C[C@@H](N)c1ccc(-c2n[nH]c(=O)c3ccccc23)cc1 [Compound No. 51, (R)-4-(4-(1-aminoethyl)phenyl)phthalazin-1(2H)-one hydrochloride] | < 1 µM
CC(C)(N)c1ccc(-c2n[nH]c(=O)c3ccccc23)cc1 [Compound No. 52, 4-(4-(2-aminopropan-2-yl)phenyl)phthalazin-1(2H)-one hydrochloride] | 1 to 10 µM
NCc1ccc(-c2n[nH]c(=O)c3ccccc23)cc1C(F)(F)F [Compound No. 53, 4-(4-(aminomethyl)-3-(trifluoromethyl)phenyl)phthalazin-1(2H)-one hydrochloride] | < 1 µM
O=c1[nH]nc(-c2ccc3c(c2)CCNC3)c2ccccc12 [Compound No. 55, 4-(1,2,3,4-tetrahydroisoquinolin-6-yl)phthalazin-1(2H)-one hydrochloride] | < 1 µM
Cn1nc(-c2ccc3c(c2)CCNC3)c2ccccc2c1=O [Compound No. 56, 2-methyl-4-(1,2,3,4-tetrahydroisoquinolin-6-yl)phthalazin-1(2H)-one hydrochloride] | 1 to 10 µM
COc1cc2c(-c3ccc4c(c3)CCNC4)n[nH]c(=O)c2cc1OC [Compound No. 57, 6,7-dimethoxy-4-(1,2,3,4-tetrahydroisoquinolin-6-yl)phthalazin-1(2H)-one hydrochloride] | 1 to 10 µM
COc1cc2c(-c3ccc4c(c3)CCNC4)nn(C)c(=O)c2cc1OC [Compound No. 58, 6,7-dimethoxy-2-methyl-4-(1,2,3,4-tetrahydroisoquinolin-6-yl)phthalazin-1(2H)-one hydrochloride] | 1 to 10 µM
COc1cc2c(-c3ccc4c(c3)CNCC4)n[nH]c(=O)c2cc1OC [Compound No. 59, 6,7-dimethoxy-4-(1,2,3,4-tetrahydroisoquinolin-7-yl) phthalazin-1(2H)-one] | > 10 µM
CC(C)(C)OC(=O)NS(=O)(=O)Nc1cccc(-c2n[nH]c(=O)c3ccccc23)c1 [Compound No. 60, tert-butyl (N-(3-(4-oxo-3,4-dihydrophthalazin-1-yl)phenyl)sulfamoyl)carbamate] | > 10 µM
Cn1nc(-c2cccc(NS(=O)(=O)NC(=O)OC(C)(C)C)c2)c2ccccc2c1=O [Compound No. 61, tert-butyl (N-(3-(3-methyl-4-oxo-3,4-dihydrophthalazin-1-yl)phenyl)sulfamoyl)carbamate] | > 10 µM
CC(C)(C)OC(=O)NS(=O)(=O)Nc1cccc(-c2nn(Cc3ccccc3)c(=O)c3ccccc23)c1 [Compound No. 62, tert-butyl (N-(3-(3-benzyl-4-oxo-3,4-dihydrophthalazin-1-yl)phenyl)sulfamoyl)carbamate] | > 10 µM
Cn1nc(-c2cccc(CNS(=O)(=O)NC(=O)OC(C)(C)C)c2)c2ccccc2c1=O [Compound No. 64, tert-butyl N-(3-(3-methyl-4-oxo-3,4-dihydrophthalazin-1-yl)benzyl)sulfamoyl carbamate] | > 10 µM
Cn1nc(-c2ccc(CNS(=O)(=O)NC(=O)OC(C)(C)C)cc2)c2ccccc2c1=O [Compound No. 66, tert-butyl (N-(4-(3-methyl-4-oxo-3,4-dihydrophthalazin-1-yl)benzyl)sulfamoyl)carbamate] | > 10 µM
CCn1nc(-c2ccc(CNS(=O)(=O)NC(=O)OC(C)(C)C)cc2)c2ccccc2c1=O [Compound No. 67, tert-butyl (N-(4-(3-ethyl-4-oxo-3,4-dihydrophthalazin-1-yl)benzyl)sulfamoyl)carbamate] | > 10 µM
CC(C)(C)OC(=O)NS(=O)(=O)NCc1ccc(-c2nn(-c3ccccc3)c(=O)c3ccccc23)cc1 [Compound No. 69, tert-butyl (N-(4-(4-oxo-3-phenyl-3,4-dihydrophthalazin-1-yl)benzyl)sulfamoyl)carbamate] | > 10 µM
CC(C)(C)OC(=O)NS(=O)(=O)NCc1ccc(-c2nn(Cc3ccccc3)c(=O)c3ccccc23)cc1 [Compound No. 70] | > 10 µM
CC(C)(C)OC(=O)NS(=O)(=O)NCc1ccc(-c2nn(Cc3ccc(F)cc3)c(=O)c3ccccc23)cc1 [Compound No. 71, tert-butyl (N-(4-(3-(4-fluorobenzyl)-4-oxo-3,4-dihydrophthalazin-1-yl)benzyl)sulfamoyl)carbamate] | > 10 µM
COc1ccc2c(=O)[nH]nc(-c3ccc(CNS(=O)(=O)NC(=O)OC(C)(C)C)cc3)c2c1 [Compound No. 72] | > 10 µM
COc1ccc2c(=O)n(C)nc(-c3ccc(CNS(=O)(=O)NC(=O)OC(C)(C)C)cc3)c2c1 [Compound No. 73, tert-butyl N-(4-(7-methoxy-3-methyl-4-oxo-3,4-dihydrophthalazin-1-yl)benzyl)sulfamoyl carbamate] | > 10 µM
COc1cc2c(-c3ccc(CNS(=O)(=O)NC(=O)OC(C)(C)C)cc3)n[nH]c(=O)c2cc1OC [Compound No. 76, tert-butyl (N-(4-(6,7-dimethoxy-4-oxo-3,4-dihydrophthalazin-1-yl)benzyl)sulfamoyl)carbamate] | 1 to 10 µM
COc1cc2c(-c3ccc(CNS(=O)(=O)NC(=O)OC(C)(C)C)cc3)nn(C)c(=O)c2cc1OC [Compound No. 77, tert-butyl (N-(4-(6,7-dimethoxy-3-methyl-4-oxo-3,4-dihydrophthalazin-1-yl)benzyl)sulfamoyl)carbamate] | 1 to 10 µM
CC(C)(C)OC(=O)NS(=O)(=O)NCc1ccc(-c2n[nH]c(=O)c3ccccc23)cc1C(F)(F)F [Compound No. 81, tert-butyl N-(4-(4-oxo-3,4-dihydrophthalazin-1-yl)-2-(trifluoromethyl)benzyl)sulfamoyl carbamate] | > 10 µM
CC(C)(C)OC(=O)NS(=O)(=O)N1CCc2cc(-c3n[nH]c(=O)c4ccccc34)ccc2C1 [Compound No. 83, tert-butyl ((6-(4-oxo-3,4-dihydrophthalazin-1-yl)-3,4-dihydroisoquinolin-2(1H)-yl)sulfonyl)carbamate] | > 10 µM
Cn1nc(-c2ccc3c(c2)CCN(S(=O)(=O)NC(=O)OC(C)(C)C)C3)c2ccccc2c1=O [Compound No. 84, tert-butyl ((6-(3-methyl-4-oxo-3,4-dihydrophthalazin-1-yl)-3,4-dihydroisoquinolin-2(1H)-yl)sulfonyl)carbamate] | > 10 µM
COc1cc2c(-c3ccc4c(c3)CCN(S(=O)(=O)NC(=O)OC(C)(C)C)C4)n[nH]c(=O)c2cc1OC [Compound No. 85, tert-butyl ((6-(6,7-dimethoxy-4-oxo-3,4-dihydrophthalazin-1-yl)-3,4-dihydroisoquinolin-2(1H)-yl)sulfonyl)carbamate] | > 10 µM
Cn1nc(-c2cccc(NS(N)(=O)=O)c2)c2ccccc2c1=O [Compound No. 88, N-(3-(3-methyl-4-oxo-3,4-dihydrophthalazin-1-yl)phenyl)sulfamide hydrochloride] | < 1 µM
